Drawing on US9428456B2, “1-[m-carboxamido(hetero)aryl-methyl]-heterocyclyl-carboxamide derivatives” (Actelion Pharmaceuticals Ltd., priority 2012, dated 2016), this text covers EC50 for 26 compounds.

CXCR7, sequence (P25106 whole entry, the tested form may be a part): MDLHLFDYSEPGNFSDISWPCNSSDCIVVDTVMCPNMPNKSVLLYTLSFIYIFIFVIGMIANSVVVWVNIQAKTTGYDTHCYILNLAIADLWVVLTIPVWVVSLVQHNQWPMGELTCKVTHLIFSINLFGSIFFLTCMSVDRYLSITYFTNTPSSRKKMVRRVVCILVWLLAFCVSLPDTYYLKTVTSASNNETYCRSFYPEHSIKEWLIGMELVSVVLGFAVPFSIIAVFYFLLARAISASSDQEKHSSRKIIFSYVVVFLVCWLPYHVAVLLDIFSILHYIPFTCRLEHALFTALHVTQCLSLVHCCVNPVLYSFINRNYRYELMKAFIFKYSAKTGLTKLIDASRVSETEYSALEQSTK
CXCR7, sequence (P32121 whole entry partner, the tested form may be a part): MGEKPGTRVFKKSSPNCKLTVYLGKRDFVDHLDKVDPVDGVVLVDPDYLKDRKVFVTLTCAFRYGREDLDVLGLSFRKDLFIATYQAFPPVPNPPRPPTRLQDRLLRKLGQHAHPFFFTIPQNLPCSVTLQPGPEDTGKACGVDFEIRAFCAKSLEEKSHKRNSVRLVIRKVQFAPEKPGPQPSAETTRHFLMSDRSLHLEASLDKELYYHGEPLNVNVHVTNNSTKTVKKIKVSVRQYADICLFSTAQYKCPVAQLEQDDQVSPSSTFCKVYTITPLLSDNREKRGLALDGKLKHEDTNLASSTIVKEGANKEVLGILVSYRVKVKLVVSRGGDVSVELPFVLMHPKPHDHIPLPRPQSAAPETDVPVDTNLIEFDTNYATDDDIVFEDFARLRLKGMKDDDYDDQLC

This test concerns the target CXCR7 (Homo sapiens (Human), UniProt P25106). The test is described as follows: PathHunter CHO-K1 CXCR7 b-arrestin assay (agonistic activity). It is filed as cell-based. Conditions: PathHunter CHO-K1 CXCR7 b-arrestin cell line. Put shortly: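 CHO-K1 cells co-expressing ProLink-tagged CXCR7 and EA-fused β-arrestin 2 (enzyme fragment complementation); compounds added in HBSS/20 mM HEPES/0.2% BSA after 3–4 h in OPTIMEM, 90 min at 37 °C. Chemiluminescent β-gal signal read after 1 h detection at room temperature; EC50 reported as geometric mean of several measurements.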
Take `Cc1cc(C(=O)Nc2cccc(CN3CCC(C(=O)NC(C)(C)C)CC3)c2)c[n+]([O-])c1` [Example 4.022, N-[3-(4-tert-Butylcarbamoyl-piperidin-1-ylmethyl)-phenyl]-5-methyl-1-oxy-nicotinamide]: the EC50 amounted to 234 nM.
Under `O=C(Nc1cccc(CN2CCC(C(=O)NC3CCCCC3)CC2)c1)c1ccccn1` [Example 1.039] stands 1 nM.
The same measure for `O=C(Nc1cccc(CN2CCC(C(=O)NC3CCCC3)CC2)c1)c1cnc2ccccc2c1` [Example 1.211]: 3 nM; for `O=C(Nc1cccc(CN2CCC(C(=O)NC3CCCCC3)CC2)c1)c1ccc(F)c(F)c1` [Example 1.129]: 2 nM; for `CC(C)(C)NC(=O)C1CCN(Cc2cccc(NC(=O)Cc3ccccc3)c2)CC1` [Example 1.259]: 4 nM.
Under `Cc1cc(F)ccc1C(=O)Nc1cccc(CN2CCC(C(=O)NC3CCCCC3)CC2)c1` [Example 1.115] stands 5 nM.
Compound `O=C(Nc1cccc(CN2CCC(C(=O)NC3CCCCC3)CC2)c1)c1ccc[nH]1` [Example 1.046] yielded an EC50 of 5 nM.
Compound `CC(C)(C)NC(=O)C1CCN(Cc2cccc(NC(=O)c3cccc(Br)n3)c2)CC1` [Example 1.344] showed a 50% effective concentration (EC50) of 0.9 nM.
The same measure for `CC(C)(C)NC(=O)C1CCN(Cc2cccc(NC(=O)C3CC3(C)C)c2)CC1` (racemic) [Example 1.257]: 7 nM.
Under `CC(C)(C)NC(=O)C1CCN(Cc2cccc(NC(=O)c3ccc(F)cn3)c2)CC1` [Example 4.020, 5-Fluoro-pyridine-2-carboxylic acid [3-(4-tert-butylcarbamoyl-piperidin-1-ylmethyl)-phenyl]-amide] stands 0.6 nM.
Under `CCc1ccc(NC(=O)c2cccc(C(F)(F)F)n2)cc1CN1CCC(C(=O)NC(C)(C)C)CC1` [Example 1.332] stands 16 nM; under `COc1ccc(CC(=O)Nc2cccc(CN3CCC(C(=O)NC4CCCCC4)CC3)c2)cc1` [Example 1.042], 79 nM.
Compound `CC(C)(C)NC(=O)C1CCN(Cc2cccc(NC(=O)c3cccnn3)c2)CC1` [Example 1.322] showed a concentration for a half-maximal effect (EC50) of 4 nM.
The same measure for `CC(C)(C)NC(=O)C1CCN(Cc2cccc(NC(=O)C3(c4ccc(Cl)cc4)CC3)c2)CC1` [Example 1.310]: 2 nM; for `CC(C)(C)NC(=O)C1CCN(Cc2cccc(NC(=O)C3COc4ccccc43)c2)CC1` (racemic) [Example 1.266]: 6 nM.
On to `Cc1cccc(C)c1C(=O)Nc1cccc(CN2CCC(C(=O)NC3CCCCC3)CC2)c1` [Example 1.108], for which the response was half-maximal at 633 nM (EC50).
The same measure for `Cc1cc(C(=O)Nc2cccc(CN3CCC(C(=O)NC4CC4)CC3)c2)ccn1` [Example 1.203]: 56 nM; for `Cc1c(Cl)cccc1C(=O)Nc1cccc(CN2CCC(C(=O)NC3CCCCC3)CC2)c1` [Example 1.120]: 35 nM.
Under `COc1cc(F)cc(C(=O)Nc2cccc(CN3CCC(C(=O)NC4CCCCC4)CC3)c2)c1` [Example 1.124] stands 5 nM; under `CC(c1cccc(NC(=O)c2ccc(Cl)cc2)c1)N1CCC(C(=O)NC2CCCCC2)CC1` (centres unmarked) [Example 1.164], 8 nM; under `CC(C)(C)NC(=O)C1CCN(Cc2cccc(NC(=O)Cc3cc(F)c(Cl)cc3Cl)c2)CC1` [Example 1.252], 4 nM.
Under `CC(C)(C)NC(=O)C1CCN(Cc2cccc(NC(=O)c3cc(C(F)(F)F)ccn3)c2)CC1` [Example 1.242] stands 6 nM.
For `Cc1cc(C(=O)Nc2cccc(CN3CCC(C(=O)NC(C)(C)C)CC3)c2)c(Cl)nn1` [Example 1.324], it took 51 nM to reach a half-maximal effect (EC50).
As to `Cc1cncc(C(=O)Nc2nc(CN3CCC(C(=O)NC4CCCC4)CC3)cs2)c1` [Example 1.294], the EC50 worked out at 408 nM.
Under `CC(C)(C)NC(=O)C1CCN(Cc2cccc(NC(=O)Cc3cccc(C(F)(F)F)c3Cl)c2)CC1` [Example 1.249] stands 2 nM; under `O=C(Nc1cccc(CN2CCC(C(=O)NC3CCCCC3)CC2)c1)c1cccnc1Cl` [Example 1.066], 44 nM.
